Assay results published in patent US10472677B2, “Translational dysfunction based therapeutics” (Translational Therapeutics, Inc., priority 2005, dated 2019).

Tests used:
eIF4E wild-type = target: T1, eIF4E wild-type (Mus musculus, UniProt P63073); experiment: tryptophan fluorescence quenching titration of nucleoside/nucleotide binding; conditions: fluorescence spectroscopy, wild-type eIF4E; read-out: apparent dissociation constant (Kd) for eIF4E
T1 construct: made in house
Method: For fluorescence titrations, mouse eIF4E, which differs from human eIF4E by four nonconserved amino acids, was produced as described. For NMR spectroscopy, mouse eIF4E was expressed as a fusion with the B1 domain of protein G (G4E, kind gift of Gerhard Wagner, Harvard University, Cambridge, Mass.), in BL21 (DE-3) cells by induction with 0.8 mM isopropyl-β-D-thiogalactopyranoside at 18° C. for 20 h in M9 minimal media containing 1 g/l ^15NH4Cl as the sole nitrogen source (Cambridge Isotopes). Cells were lysed at 4° C. by sonication in 0.1 M NaCl/50 mM Tris.HCl (pH 7.5/0.5 mM EDTA/0.5% (vol/vol) Nonidet P-40/10 mM 2-mercaptoethanol/1 mM PMSF. Lysates were cleared by centrifugation at 30,000×g, adsorbed onto m^7G diphosphate-conjugated agarose (Amersham Pharmacia), and extensively washed with 0.1 M NaCl/20 mM Tris.HCl (pH 7.5)/0.5 mM EDTA (Buffer A) at 4° C. Subsequently, beads were washed with 0.1 mM GTP in Buffer A, and G4E was eluted with 5 mM m^7G in Buffer A. Eluate was diluted with 20 mM Na2PO4 (pH 7.5) to reduce NaCl concentration to 50 mM, applied to Sepharose Q anion exchange column (Amersham Pharmacia), and eluted with a linear gradient of NaCl in 20 mM Na2PO4 (pH 7.5) at 4° C. Eluate was dialyzed extensively against 0.1 M NaCl/50 mM Na2PO4 (pH 6.5)/5 mM DTT at 4° C. to produce apo-G4E, as verified by using NMR spectroscopy and fluorescence titrations. Purity and identity of G4E were verified by using SDS/PAGE and electrospray ionization MS. Proteins were concentrated by using Amicon concentrators (Millipore).
(§1) Fluorescence measurements were performed by using a home-built fluorimeter, as described. All titrations were performed in 0.3 M NaCl/10 mM Na2PO4 (pH 7.5)/1 μM zinc in 0.3×0.3 cm^2 fluorescence cuvette (Hellma), by using eIF4E concentration of 2 μM. […] Corrected relative fluorescence intensities were normalized, and fluorescence quenching curves were fit to a heuristic single-site-binding expression: I/I0=Kd^n/(x^n+Kd^n) where x is ligand concentration, Kd is the apparent dissociation constant, and n is the Hill coefficient.

eIF4E W56A = target: T2, eIF4E W56A (Mus musculus, UniProt P63073, W56A); experiment: tryptophan fluorescence quenching titration, cap-binding site mutant; conditions: relative to wild-type eIF4E
T2 construct: made in house
Method: For fluorescence titrations, mouse eIF4E, which differs from human eIF4E by four nonconserved amino acids, was produced as described. For NMR spectroscopy, mouse eIF4E was expressed as a fusion with the B1 domain of protein G (G4E, kind gift of Gerhard Wagner, Harvard University, Cambridge, Mass.), in BL21 (DE-3) cells by induction with 0.8 mM isopropyl-β-D-thiogalactopyranoside at 18° C. for 20 h in M9 minimal media containing 1 g/l ^15NH4Cl as the sole nitrogen source (Cambridge Isotopes). […] Eluate was dialyzed extensively against 0.1 M NaCl/50 mM Na2PO4 (pH 6.5)/5 mM DTT at 4° C. to produce apo-G4E, as verified by using NMR spectroscopy and fluorescence titrations. […]
as §1

T2 sequence (P63073 whole entry W56A): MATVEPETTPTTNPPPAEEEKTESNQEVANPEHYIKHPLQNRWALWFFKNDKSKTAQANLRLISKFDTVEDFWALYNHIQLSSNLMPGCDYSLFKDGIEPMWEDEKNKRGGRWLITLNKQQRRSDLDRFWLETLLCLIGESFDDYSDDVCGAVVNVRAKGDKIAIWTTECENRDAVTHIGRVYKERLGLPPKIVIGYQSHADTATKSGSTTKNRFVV
T1 sequence (P63073 whole entry): as the sequence (P63073 whole entry W56A) above, with A56W counted along it

`NC(=O)c1ncn([C@@H]2O[C@H](CO)[C@@H](O)[C@H]2O)n1` [Ribavirin, 1-β-D-ribofuranosyl-1,2,4-triazole-3-carboxamide] was tested, and the Kd (eIF4E wild-type) was 8.4 µM and the “reduction of Ribavirin affinity by W56A mutation” value (eIF4E W56A) was 14 fold.
